Source: ChEMBL document CHEMBL4507277

Assays:
[1] = biological target: D(2) dopamine receptor (Homo sapiens) (UniProt P14416); conditions: Compound concentration 10.0 uM
[2] = biological target: Beta-1 adrenergic receptor (Homo sapiens) (UniProt P08588); conditions: Compound concentration 10.0 uM
[3] = biological target: Sigma intracellular receptor 2 (Homo sapiens) (UniProt Q5BJF2); conditions: Compound concentration 10.0 uM
[4] = biological target: Gamma-aminobutyric acid receptor subunit beta-1 (Homo sapiens) (UniProt P18505); conditions: Rattus norvegicus; Compound concentration 10.0 uM
[5] = biological target: Glutamate receptor ionotropic, NMDA 1 (Rattus norvegicus) (UniProt P35439); conditions: Compound concentration 10.0 uM
[6] = biological target: T1, D(4) dopamine receptor (Homo sapiens) (UniProt P21917); conditions: Compound concentration 10.0 uM
T1 sequence (whole entry): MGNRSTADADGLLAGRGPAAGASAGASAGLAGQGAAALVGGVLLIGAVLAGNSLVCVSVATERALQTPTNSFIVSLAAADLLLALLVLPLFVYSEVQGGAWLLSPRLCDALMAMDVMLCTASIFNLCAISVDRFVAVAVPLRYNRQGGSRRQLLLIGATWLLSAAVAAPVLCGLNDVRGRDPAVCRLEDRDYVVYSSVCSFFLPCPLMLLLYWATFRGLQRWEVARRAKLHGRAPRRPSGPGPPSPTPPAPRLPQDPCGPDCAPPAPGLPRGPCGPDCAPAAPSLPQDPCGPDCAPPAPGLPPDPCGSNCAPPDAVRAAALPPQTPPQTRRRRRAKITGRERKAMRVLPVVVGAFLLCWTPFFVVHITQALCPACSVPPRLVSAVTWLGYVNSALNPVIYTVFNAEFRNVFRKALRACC

[7] = biological target: Sodium-dependent serotonin transporter (Homo sapiens) (UniProt P31645); conditions: Compound concentration 10.0 uM
[8] = biological target: Potassium voltage-gated channel subfamily A member 1 (Rattus norvegicus) (UniProt P10499); conditions: Compound concentration 10.0 uM
[9] = biological target: 5-hydroxytryptamine receptor 5A (Homo sapiens) (UniProt P47898); conditions: Compound concentration 10.0 uM
[10] = biological target: ATP-sensitive inward rectifier potassium channel 1 isoform X1 (Mesocricetus auratus) (UniProt A0A1U8CU73); conditions: Compound concentration 10.0 uM
[11] = biological target: Cathepsin G (Homo sapiens) (UniProt P08311); conditions: Compound concentration 10.0 uM
[12] = biological target: Adrenergic receptor alpha-1 (Rattus norvegicus) (UniProt P15823+P23944+P43140); conditions: Compound concentration 10.0 uM
[13] = biological target: Acetylcholine receptor subunit alpha (Homo sapiens) (UniProt P02708); conditions: Compound concentration 10.0 uM
[14] = biological target: Sodium/potassium-transporting ATPase subunit alpha-1 (Sus scrofa) (UniProt P05024); conditions: Compound concentration 10.0 uM
[15] = biological target: Neutrophil elastase (Homo sapiens) (UniProt P08246); conditions: Compound concentration 10.0 uM
[16] = biological target: D(3) dopamine receptor (Homo sapiens) (UniProt P35462); conditions: Compound concentration 10.0 uM
[17] = biological target: Androgen receptor (Rattus norvegicus) (UniProt P15207); conditions: Compound concentration 10.0 uM
[18] = biological target: Nitric oxide synthase 3 (Rattus norvegicus) (UniProt Q62600); conditions: Compound concentration 10.0 uM
[19] = biological target: Nitric oxide synthase 3 (Bos taurus) (UniProt P29473); conditions: Compound concentration 10.0 uM
[20] = biological target: Alpha-1A adrenergic receptor (Homo sapiens) (UniProt P35348); conditions: Compound concentration 10.0 uM
[21] = biological target: Beta-2 adrenergic receptor (Rattus norvegicus) (UniProt P10608); conditions: Compound concentration 10.0 uM
[22] = biological target: Platelet-activating factor receptor (Homo sapiens) (UniProt P25105); conditions: Compound concentration 10.0 uM
[23] = biological target: Polyunsaturated fatty acid 5-lipoxygenase (Homo sapiens) (UniProt P09917); conditions: Compound concentration 10.0 uM
[24] = biological target: cGMP-inhibited 3',5'-cyclic phosphodiesterase 3A (Homo sapiens) (UniProt Q14432); conditions: Compound concentration 10.0 uM
[25] = biological target: T2, 5-hydroxytryptamine receptor 3A (Homo sapiens) (UniProt P46098); conditions: Compound concentration 10.0 uM
T2 sequence (whole entry): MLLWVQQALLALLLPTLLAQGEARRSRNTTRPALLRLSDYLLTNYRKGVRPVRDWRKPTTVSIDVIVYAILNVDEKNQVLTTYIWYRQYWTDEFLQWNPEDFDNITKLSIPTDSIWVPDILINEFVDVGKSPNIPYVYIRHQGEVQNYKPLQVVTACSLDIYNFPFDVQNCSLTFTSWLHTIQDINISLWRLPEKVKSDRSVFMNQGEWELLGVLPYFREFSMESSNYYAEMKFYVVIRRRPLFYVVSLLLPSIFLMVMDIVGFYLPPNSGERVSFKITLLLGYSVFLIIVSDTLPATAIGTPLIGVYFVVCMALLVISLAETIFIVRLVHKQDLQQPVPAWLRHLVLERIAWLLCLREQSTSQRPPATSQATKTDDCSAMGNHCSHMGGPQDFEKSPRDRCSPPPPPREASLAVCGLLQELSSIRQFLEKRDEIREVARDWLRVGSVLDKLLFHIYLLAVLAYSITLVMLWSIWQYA

[26] = biological target: D(1A) dopamine receptor (Homo sapiens) (UniProt P21728); conditions: Compound concentration 10.0 uM
[27] = biological target: Voltage-dependent N-type calcium channel subunit alpha-1B (Rattus norvegicus) (UniProt Q02294); conditions: Compound concentration 10.0 uM
[28] = biological target: Calpain-1 catalytic subunit (Homo sapiens) (UniProt P07384); conditions: Compound concentration 10.0 uM
[29] = biological target: Leukotriene C4 synthase (Cavia porcellus) (UniProt A6XA80); conditions: Compound concentration 10.0 uM
[30] = biological target: Sodium-dependent dopamine transporter (Homo sapiens) (UniProt Q01959); conditions: Compound concentration 10.0 uM

Beta-1 adrenergic receptor (Homo sapiens), sequence (P08588 whole entry, looked up): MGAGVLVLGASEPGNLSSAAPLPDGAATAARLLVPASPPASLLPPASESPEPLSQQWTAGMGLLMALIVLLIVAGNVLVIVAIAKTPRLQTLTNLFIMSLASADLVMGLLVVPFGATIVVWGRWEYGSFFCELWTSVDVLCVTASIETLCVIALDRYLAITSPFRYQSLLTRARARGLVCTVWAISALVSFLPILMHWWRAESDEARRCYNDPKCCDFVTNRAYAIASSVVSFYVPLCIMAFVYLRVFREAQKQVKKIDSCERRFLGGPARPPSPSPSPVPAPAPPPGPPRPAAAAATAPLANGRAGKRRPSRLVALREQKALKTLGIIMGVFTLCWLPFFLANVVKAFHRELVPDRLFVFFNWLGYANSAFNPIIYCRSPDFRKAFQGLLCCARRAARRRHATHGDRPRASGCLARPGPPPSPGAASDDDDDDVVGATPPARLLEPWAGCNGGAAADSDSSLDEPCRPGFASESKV
cGMP-inhibited 3',5'-cyclic phosphodiesterase 3A (Homo sapiens), sequence (Q14432 whole entry): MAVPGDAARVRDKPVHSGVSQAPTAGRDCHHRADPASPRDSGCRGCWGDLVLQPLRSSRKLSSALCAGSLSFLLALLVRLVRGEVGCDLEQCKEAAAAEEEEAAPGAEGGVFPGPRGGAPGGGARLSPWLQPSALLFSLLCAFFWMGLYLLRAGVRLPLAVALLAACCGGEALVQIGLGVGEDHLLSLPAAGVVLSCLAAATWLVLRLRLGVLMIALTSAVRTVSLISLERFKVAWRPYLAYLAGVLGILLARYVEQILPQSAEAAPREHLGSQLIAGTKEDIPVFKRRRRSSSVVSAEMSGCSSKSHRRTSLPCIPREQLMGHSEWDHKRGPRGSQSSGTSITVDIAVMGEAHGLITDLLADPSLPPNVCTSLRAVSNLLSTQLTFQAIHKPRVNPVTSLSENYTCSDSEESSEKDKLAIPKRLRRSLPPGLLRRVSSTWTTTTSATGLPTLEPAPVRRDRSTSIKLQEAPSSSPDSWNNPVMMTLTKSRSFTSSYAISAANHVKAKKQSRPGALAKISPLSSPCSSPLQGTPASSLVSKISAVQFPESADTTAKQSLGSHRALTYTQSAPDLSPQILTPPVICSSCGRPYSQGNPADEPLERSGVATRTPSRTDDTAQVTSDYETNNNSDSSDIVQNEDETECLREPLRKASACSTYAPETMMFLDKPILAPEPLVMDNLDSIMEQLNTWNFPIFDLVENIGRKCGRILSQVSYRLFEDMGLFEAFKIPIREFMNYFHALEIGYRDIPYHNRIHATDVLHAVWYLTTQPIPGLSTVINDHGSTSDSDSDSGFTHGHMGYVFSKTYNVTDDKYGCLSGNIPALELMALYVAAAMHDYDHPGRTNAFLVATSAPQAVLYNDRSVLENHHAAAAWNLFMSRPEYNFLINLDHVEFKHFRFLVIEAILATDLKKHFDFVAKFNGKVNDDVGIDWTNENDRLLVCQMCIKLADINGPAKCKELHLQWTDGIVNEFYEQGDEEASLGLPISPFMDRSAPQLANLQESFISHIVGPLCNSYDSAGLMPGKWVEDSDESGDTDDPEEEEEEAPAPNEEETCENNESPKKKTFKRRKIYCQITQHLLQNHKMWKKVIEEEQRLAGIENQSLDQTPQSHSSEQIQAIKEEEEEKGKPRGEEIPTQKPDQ
Polyunsaturated fatty acid 5-lipoxygenase (Homo sapiens), sequence (P09917 whole entry): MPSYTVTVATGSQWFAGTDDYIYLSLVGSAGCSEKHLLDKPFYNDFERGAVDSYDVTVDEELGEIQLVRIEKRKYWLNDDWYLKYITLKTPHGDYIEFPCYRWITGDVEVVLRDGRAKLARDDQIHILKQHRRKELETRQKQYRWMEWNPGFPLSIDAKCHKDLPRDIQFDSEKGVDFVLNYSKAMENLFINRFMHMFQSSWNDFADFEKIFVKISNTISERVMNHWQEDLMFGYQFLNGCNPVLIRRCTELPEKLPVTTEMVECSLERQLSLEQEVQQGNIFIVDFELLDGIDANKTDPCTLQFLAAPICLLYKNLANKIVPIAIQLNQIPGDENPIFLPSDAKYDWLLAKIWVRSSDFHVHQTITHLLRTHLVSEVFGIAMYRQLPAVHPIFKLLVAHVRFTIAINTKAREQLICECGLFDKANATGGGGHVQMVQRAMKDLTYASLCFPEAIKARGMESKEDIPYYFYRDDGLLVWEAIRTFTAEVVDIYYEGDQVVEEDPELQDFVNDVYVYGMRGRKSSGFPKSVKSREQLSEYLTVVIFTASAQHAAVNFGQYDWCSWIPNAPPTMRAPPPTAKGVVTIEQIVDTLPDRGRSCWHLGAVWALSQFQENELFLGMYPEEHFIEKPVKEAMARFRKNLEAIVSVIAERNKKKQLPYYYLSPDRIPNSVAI
Nitric oxide synthase 3 (Rattus norvegicus), sequence (Q62600 whole entry): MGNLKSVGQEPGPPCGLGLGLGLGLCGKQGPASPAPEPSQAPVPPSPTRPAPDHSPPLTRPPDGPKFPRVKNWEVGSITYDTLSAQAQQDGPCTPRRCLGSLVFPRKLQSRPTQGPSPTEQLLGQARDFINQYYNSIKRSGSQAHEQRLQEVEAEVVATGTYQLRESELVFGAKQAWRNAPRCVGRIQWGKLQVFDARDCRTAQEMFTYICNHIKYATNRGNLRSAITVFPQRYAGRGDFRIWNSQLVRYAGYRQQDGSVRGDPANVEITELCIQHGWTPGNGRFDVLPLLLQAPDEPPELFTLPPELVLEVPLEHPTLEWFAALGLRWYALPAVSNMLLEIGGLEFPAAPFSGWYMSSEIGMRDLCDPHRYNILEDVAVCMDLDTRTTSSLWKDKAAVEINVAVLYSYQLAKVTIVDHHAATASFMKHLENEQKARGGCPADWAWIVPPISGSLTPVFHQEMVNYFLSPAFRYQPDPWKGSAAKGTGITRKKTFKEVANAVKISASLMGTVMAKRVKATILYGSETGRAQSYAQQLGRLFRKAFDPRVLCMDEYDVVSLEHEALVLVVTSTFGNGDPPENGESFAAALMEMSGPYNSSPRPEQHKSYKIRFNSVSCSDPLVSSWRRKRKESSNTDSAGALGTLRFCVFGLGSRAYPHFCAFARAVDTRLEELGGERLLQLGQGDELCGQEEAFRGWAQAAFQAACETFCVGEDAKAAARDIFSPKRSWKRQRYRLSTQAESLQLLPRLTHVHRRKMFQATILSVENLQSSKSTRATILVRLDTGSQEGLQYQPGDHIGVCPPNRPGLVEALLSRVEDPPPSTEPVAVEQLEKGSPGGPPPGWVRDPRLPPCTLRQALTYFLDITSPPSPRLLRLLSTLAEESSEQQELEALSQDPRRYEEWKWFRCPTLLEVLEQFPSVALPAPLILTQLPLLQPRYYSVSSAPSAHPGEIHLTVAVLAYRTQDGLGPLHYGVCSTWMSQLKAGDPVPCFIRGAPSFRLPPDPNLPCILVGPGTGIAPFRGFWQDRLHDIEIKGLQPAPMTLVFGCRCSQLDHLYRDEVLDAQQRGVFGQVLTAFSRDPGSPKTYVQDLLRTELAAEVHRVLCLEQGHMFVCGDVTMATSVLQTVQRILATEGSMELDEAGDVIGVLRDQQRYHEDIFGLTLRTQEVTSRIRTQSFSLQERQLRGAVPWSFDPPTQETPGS
Sigma intracellular receptor 2 (Homo sapiens), sequence (Q5BJF2 whole entry): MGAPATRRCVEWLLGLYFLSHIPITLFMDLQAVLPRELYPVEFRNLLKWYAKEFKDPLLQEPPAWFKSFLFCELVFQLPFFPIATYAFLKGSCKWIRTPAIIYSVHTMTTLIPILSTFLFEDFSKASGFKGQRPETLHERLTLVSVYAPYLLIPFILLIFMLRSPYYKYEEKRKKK
Neutrophil elastase (Homo sapiens), sequence (P08246 whole entry): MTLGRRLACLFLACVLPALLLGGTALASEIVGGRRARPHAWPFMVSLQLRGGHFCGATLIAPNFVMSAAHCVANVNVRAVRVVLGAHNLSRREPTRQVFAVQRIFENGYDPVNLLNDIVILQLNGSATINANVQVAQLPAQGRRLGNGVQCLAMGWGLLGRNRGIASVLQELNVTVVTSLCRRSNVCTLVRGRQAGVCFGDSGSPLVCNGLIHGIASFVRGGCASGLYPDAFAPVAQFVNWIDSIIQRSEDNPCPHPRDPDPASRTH
Leukotriene C4 synthase (Cavia porcellus), sequence (A6XA80 whole entry): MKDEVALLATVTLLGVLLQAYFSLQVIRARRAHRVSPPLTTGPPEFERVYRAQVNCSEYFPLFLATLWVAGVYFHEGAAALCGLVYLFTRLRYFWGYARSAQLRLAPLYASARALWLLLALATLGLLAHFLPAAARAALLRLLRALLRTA
Androgen receptor (Rattus norvegicus), sequence (P15207 whole entry S389L): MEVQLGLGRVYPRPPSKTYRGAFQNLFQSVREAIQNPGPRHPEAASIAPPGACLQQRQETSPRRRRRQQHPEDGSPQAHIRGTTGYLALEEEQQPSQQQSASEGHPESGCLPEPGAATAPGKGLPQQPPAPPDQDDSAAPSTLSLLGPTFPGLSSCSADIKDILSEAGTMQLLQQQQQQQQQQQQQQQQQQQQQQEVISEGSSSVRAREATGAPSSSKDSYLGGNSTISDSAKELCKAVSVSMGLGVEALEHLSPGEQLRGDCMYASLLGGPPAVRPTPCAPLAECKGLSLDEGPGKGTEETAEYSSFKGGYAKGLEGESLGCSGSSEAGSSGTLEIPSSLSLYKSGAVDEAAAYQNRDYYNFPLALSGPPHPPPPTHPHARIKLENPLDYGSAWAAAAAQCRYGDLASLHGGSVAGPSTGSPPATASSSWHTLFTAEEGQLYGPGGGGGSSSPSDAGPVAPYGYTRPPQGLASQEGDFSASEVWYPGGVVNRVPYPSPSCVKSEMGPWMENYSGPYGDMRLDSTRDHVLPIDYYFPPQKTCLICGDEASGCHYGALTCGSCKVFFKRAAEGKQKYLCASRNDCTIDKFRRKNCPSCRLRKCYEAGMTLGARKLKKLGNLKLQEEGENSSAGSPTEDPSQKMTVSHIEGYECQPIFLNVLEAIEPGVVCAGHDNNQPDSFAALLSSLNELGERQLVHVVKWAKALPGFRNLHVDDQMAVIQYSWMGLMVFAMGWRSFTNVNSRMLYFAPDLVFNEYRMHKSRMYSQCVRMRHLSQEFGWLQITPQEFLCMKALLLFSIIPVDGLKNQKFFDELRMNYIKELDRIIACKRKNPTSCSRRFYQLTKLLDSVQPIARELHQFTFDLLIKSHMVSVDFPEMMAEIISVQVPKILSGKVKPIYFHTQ

CCS(=O)(=O)c1cc2cc(C[C@@](O)(CC(C)(C)c3ccc(F)cc3C(N)=O)C(F)(F)F)[nH]c2cn1
inactive: inhibition [1] -8.41% | inhibition [2] -8.85%

CCS(=O)(=O)c1cc2cc(C[C@](O)(CC(C)(C)c3ccc(F)cc3C(N)=O)C(F)(F)F)[nH]c2cn1
inactive: inhibition [3] 9.04% | residual activity [4] 75% | residual activity [5] 103% | residual activity [6] 104% | residual activity [7] 99% | residual activity [8] 87% | inhibition [9] 12.2% | residual activity [10] 104% | residual activity [11] 104% | residual activity [12] 89% | residual activity [13] 101% | residual activity [14] 115% | residual activity [15] 87% | residual activity [16] 81% | residual activity [17] 101% | residual activity [18] 99% | residual activity [19] 85% | inhibition [20] -0.31% | residual activity [21] 75% | residual activity [22] 95% | residual activity [23] 79% | residual activity [24] 82% | residual activity [25] 100% | residual activity [26] 92% | residual activity [27] 96% | residual activity [28] 98% | residual activity [29] 104% | residual activity [30] 106%
